# In patent US7250157B2, “Dermatological compositions and methods” (Applied Genetics Incorporated Dermatics, priority 1996, dated 2007):
# What was measured:
# [1] = system: Normal human epidermal melanocytes (NHEMs); assay: Melanin induction in normal human epidermal melanocytes; format: cell-based
# Experimental: Normal human epidermal melanocytes (NHEMs) were examined for induction of melanogenesis using cells and media from Clonetics Corporation (San Diego, Calif.). Cells were cultured exactly as specified by the supplier.
# [2] = system: Cloudman S91 mouse melanoma cell line; assay: Melanin content of S91 cells after treatment with test compound; format: cell-based
# Experimental: The Cloudman S91 mouse melanoma cell line was obtained from American Type Culture Collection (ATCC). […] For testing propylene glycol and analogues for induction of melanogenesis, S91 cells were plated at 10^5 cells/35 mm dish in 10% calf serum. […] Cells were cultured for 6 days at 37° C. in 5% CO2 in a humidified incubator. Following this treatment period, cells were examined microscopically and the portion of dedifferentiated and differentiated cells was estimated.
# Following this microscopic examination, cells were detached from dishes by trypsin. The time required for detachment by trypsin was recorded as an additional indicator of the phenotypic effects of test compounds. For each treatment, a subsample of cells was counted to determine the effects of treatment compounds on cellular proliferation. The remainder of cells were used for determination of melanin content. […] Absorbance of standards and samples was measured at 475 nm. Melanin was expressed as pg melanin/cell.
# [3] = system: nitric oxide in cell-free media from S91 cells; assay: Nitric oxide in cell-free media from S91 cells (Greiss reagent); format: cell-based, mouse; settings: 4 days
# Experimental: In a related experiment, nitric oxide was measured in cell-free media from S91 cells following treatment with a range of concentrations of 2,3-cis/exo-pinanediol or 5-norbornene-2,2-dimethanol for 4 days. In biological fluids, nitric oxide is converted into nitrite and nitrate with seconds of production. Therefore, nitric oxide is measured by first converting nitrate to nitrite using nitrate reductase, followed by addition of Greiss reagent to detect nitrite as optical density at 550 nm (Moshage, et al., 1995, Clin. Chem. 41:892-896; Schmidt, et al., 1995, Biochemica 2:22)). […] Moreover, the relative melanogenic potency of 2,3-cis/exo-pinanediol and 5-norbornene-2,2-dimethanol shown in FIG. 5 paralleled the relative potency of these compounds with regards to induction of nitric oxide (Table 17). […] It follows that measurement of induction of nitric oxide, cGMP or PKG may provide biochemically relevant screening assays for compounds that may be melanogenic. Thus, the utilization of these assays to screen compounds for melanogenic activity is claimed in the present invention.
# [4] = system: American short-haired guinea pigs; assay: Topical melanogenesis (pigmentation rating) in guinea pigs; format: in vivo, guinea pig; design: Pigmentation Rating / Pigmentation Rating Background Corrected: scale not given here; settings: for relative melanogenesis rating (mean ±SE), scale 0-4: 25 μl twice per day for 5 days, rated two weeks after, full strength solutions; for Pigmentation Rating Normalized to 1,2-PG / Pigmentation Rating Normalized to 1M / Pigmentation Rating Background Corrected / Pigmentation Rating: No Penetration Enhancer; for Pigmentation Rating Normalized to 1,2-PG / Pigmentation Rating Normalized to 1M / Pigmentation Rating Background Corrected: concentrations as E85; for Pigmentation Rating Background Corrected: corrected for Nair control; for Pigmentation Rating: sites c and d, 11.0M 2,3-M-2,3-BD, 11.3M 2-M-1,3-PG, 8.7M 1,2-cs-CPD, 4.0M 3,3-M-1,2-BD
# Experimental: Compounds were tested for melanogenic activity in vivo by application to American short-haired guinea pigs. Treatment sites were created by removal of fur using Nair® brand depilatory. In the Table, the numbers presented are the relative melanogenesis rating (mean ±SE), and are arranged according to the relative location on the animal, with the head being to the left and the tail being to the right. Propylene glycol (PG=13.6M), 2,3-butanediol (2,3-BD=10.95M), and 1,2-cis-cyclopentanediol (1,2-cs-CPD=10.7M) were applied as full strength solutions. 3,3-dimethyl-1,2-butanediol (3,3-M-1,2-BD) was applied as a 4M solution dissolved in ethanol. Two weeks following cessation of treatments, the degree of pigmentation was subjectively rated according to the following scale:
# In order to minimize the effects of dimunition of response from head to tails of animals, all future experiments were done using only treatment spots located towards the tails of animals (c and d in Table 7). Deemed as additionally beneficial, in this area of the animal differences of responsiveness to strong and weak inducers of pigmentation, as deduced from cell culture, were greatest. […] Pigmentation ratings were corrected for background (control treatment spots), normalized to 1M to account for the different amounts of each agent applied, and then normalized to results for 1,2-PG (Table 8). […] It is anticipated that further improvements in formulation will additionally improve responsiveness to 5-NBene-2,2-DM and other compounds in this invention.
# In FIG. 5, a, b, c and d indicate treatment spots that transverse the anterior-posterior axis along the backs of guinea pigs.
# [5] = system: Cloudman S91 mouse melanoma cell line; assay: Cell count (proliferation, toxicity) of treated S91 cells; format: cell-based
# Experimental: (§1) The Cloudman S91 mouse melanoma cell line was obtained from American Type Culture Collection (ATCC). Cells were cultured in Dulbecco's Modified Eagles Medium (DMEM) containing 10% calf serum, 2 mM L-glutamine, 10 U Penicillin/ml and 10 ug Streptomycin/ml according to a previously published protocol (Eller, et al., Proc. Natl. Acad. Sci. 93:1087-92. 1996). For testing propylene glycol and analogues for induction of melanogenesis, S91 cells were plated at 10^5 cells/35 mm dish in 10% calf serum. One day after plating, media was removed and replaced with media containing 2% calf serum and test compounds (Eller, et al., 1996). Cells were cultured for 6 days at 37° C. in 5% CO2 in a humidified incubator. Following this treatment period, cells were examined microscopically and the portion of dedifferentiated and differentiated cells was estimated. Previous studies have shown that dedifferentiated S91 cells have a rounded, spindly appearance while differentiated S91 cells have a flattened, cuboidal, multipolar and dendritic appearance (Orlow, et al., Exp. Cell Res. 191:209-218, 1990).
# (§2) Following this microscopic examination, cells were detached from dishes by trypsin. The time required for detachment by trypsin was recorded as an additional indicator of the phenotypic effects of test compounds. For each treatment, a subsample of cells was counted to determine the effects of treatment compounds on cellular proliferation. The remainder of cells were used for determination of melanin content. Melanin was extracted from cells by vortexing for 15 min in 1N NaOH. Standards were prepared by dissolving melanin (Sigma) in 1 N NaOH (Eller, et al., 1996). Absorbance of standards and samples was measured at 475 nm. Melanin was expressed as pg melanin/cell.
# [6] = system: tyrosinase activity in S91 mouse melanoma cells; assay: Induction of tyrosinase activity in S91 cells; settings: for more tyrosinase activity than 5-norbornene-2,2-dimethanol: calculated from data in FIG. 5; for Tyrosinase dpm/hr 10^3 Cells / Tyrosinase dpm/hr ug Protein: 300 mM PG-1,2, 25 mM 3,3-M-1,2-BD, 50 mM 1,2-cs-CPD, 5 mM 5-NBene-2,2-DM, 0.5 mM 2,3-Pyd, 0.1 mM IBMX, mean ±SE
# Experimental: Compounds were examined for their ability to induce tyrosinase activity in S91 mouse melanoma cells. […] Following treatments, cells were trypsinized, counted by Coulter, pelleted by centrifugation at 1000×g, and analyzed for tyrosinase activity using modifications of previously described procedures (Pomerantz, S. H., 1966, J. Biol. Chem. 241:161-168; Jara, et al., 1988, Pigment Cell Res. 1: 332-339.). Briefly, cell pellets were solubilized by sonicating for 5 seconds in 600 ul 50 mM phosphate buffer pH 6.8 containing 0.5% Triton-X100, followed by vortexing, incubation on ice for 30 min, and then revortexing. From this, 200 ul aliquots were combined with 200 ul of reaction mixture containing either 75 uM tyrosine, 75 uM L-Dopa, and 2 uCi L-[3,5-^3H]Tyrosine in 50 mM NaPO4 pH 6.8 (L-Dopa+), or, 75 uM tyrosine, and 2 uCi L-[3,5-^3H]Tyrosine in 50 mM NaPO4 pH 6.8 (L-Dopa−) and incubated 1 hr at 37° C. Reactions were stopped by addition of 400 ul 10% activated charcoal in 0.1N HCl and incubation on ice for 15 min. This mixture was centrifuged at 17,300×g for 5 min, and 400 ul supernatant was then filtered through a 0.22 uM GV Durapore centifugal filter unit (Millipore) by centrifuging at 17,300×g for 5 min. Filtrate was added to 4 ml Fisher Plus scintillation fluid and counted on a Hewlett Packard scintillation counter. Tyrosinase activity was calculated as dpm/hr/ug protein and dpm/hr/10^3 cells. Each sample was analyzed with and without L-Dopa, a necessary cofactor for tyrosinase (Pomerantz, S. H., 1966, J. Biol. Chem. 241:161-168; McLane, et al., 1987, Biochem. Biophys. Res. Commun. 145:719-725). All reported tyrosinase values are exclusive of counts that occurred in buffer blanks and L-dopa negative aliquots. Protein was determined on aliquots of cell lysate, extracellular particulate lysate or media by the Bradford Coomassie Blue method (Bradford, 1967, Anal. Biochem. 72:248-254) using Bio-Rad Protein Assay Kit I.
# [7] = system: Cloudman S91 mouse melanoma cell line; assay: Trypsinization detachment time of S91 cells; format: cell-based
# Experimental: as §2
# [8] = system: Cloudman S91 mouse melanoma cell line; assay: Microscopic morphology (differentiation) of S91 cells; format: cell-based
# Experimental: as §1
# [9] = range of concentrations up to a toxic dose
# [10] = spot a (anterior), 8.7M 1,2-cis-CPD in 20% ETOH, 1M 5-NBene-2,2-DM in 8.5 M propylene glycol, 2% 2-pyrrolidone, 20% ETOH, 1M 2,3-cs/ex PD in 50% ETOH
# [11] = spot d (posterior), formulations as E220
smiles,measurement,setting,value
O=C[C@H](O)[C@H](O)[C@H](O)CO [D-ribose],melanin induction in NHEMs (in words),[1]; [9],inactive
same,melanogenesis in S91 cells (≧2-fold increase = significant),[2]; [9],did not induce significant (≧2-fold increase) melanogenesis
"CC1(C)[C@@H]2C[C@H]1[C@@](C)(O)[C@@H](O)C2 (relative stereo) [2,3-cs/ex-PD, 2,3-cis/exo-pinanediol ([1R,2R,3S,5R]-[−]-pinanediol)]",nmoles NO/10^6 Cells,[3]; 0.5 mM,10.9 ± 0.2 nmoles NO/10^6 Cells
same,uM NO,[3]; 0.5 mM,3.54 ± 0.06 µM
same,nmoles NO/10^6 Cells,[3]; 1 mM,24.5 ± 5.4 nmoles NO/10^6 Cells
same,uM NO,[3]; 1 mM,6.36 ± 1.56 µM
same,nmoles NO/10^6 Cells,[3]; 2.5 mM,131 ± 15 nmoles NO/10^6 Cells
same,uM NO,[3]; 2.5 mM,12.6 ± 0.5 µM
same,nmoles NO/10^6 Cells,[3]; 5 mM,174 ± 15 nmoles NO/10^6 Cells
same,uM NO,[3]; 5 mM,11.0 ± 1.1 µM
same,Pigmentation Ratings (X ± SE; n = 6; scale 0 to +4),[4]; [10],2.00 ± 0.20
same,Pigmentation Ratings (X ± SE; n = 6; scale 0 to +4),"[4]; spot b, formulations as E220",1.75 ± 0.17
same,Pigmentation Ratings (X ± SE; n = 6; scale 0 to +4),"[4]; spot c, formulations as E220",1.75 ± 0.17
same,Pigmentation Ratings (X ± SE; n = 6; scale 0 to +4),[4]; [11],1.04 ± 0.32
same,Cells (×10^6),"[5]; 0.5 mM, 4 days, X ± SE, n = 3",0.325 ± 0.002 ×10^6
same,Cells (×10^6),"[5]; 1 mM, 4 days, X ± SE, n = 3",0.258 ± 0.010 ×10^6
same,Cells (×10^6),"[5]; 2.5 mM, 4 days, X ± SE, n = 3",0.099 ± 0.014 ×10^6
same,Cells (×10^6),"[5]; 5 mM, 4 days, X ± SE, n = 3",0.064 ± 0.006 ×10^6
same,Fold Induction of Tyrosinase Relative to Controls,[6]; 0.5 mM (Table 19),5.1X
same,"more tyrosinase activity than 5-norbornene-2,2-dimethanol",[6]; 500 uM,2.6 fold
same,Fold Induction of Tyrosinase Relative to Controls,[6]; 1 mM (Table 19),17.6X
same,"more tyrosinase activity than 5-norbornene-2,2-dimethanol",[6]; 1 mM,5.2 fold
same,Fold Induction of Tyrosinase Relative to Controls,[6]; 2.5 mM (Table 19),119X
same,"more tyrosinase activity than 5-norbornene-2,2-dimethanol",[6]; 2.5 mM,7.3 fold
same,Fold Induction of Tyrosinase Relative to Controls,[6]; 5 mM (Table 19),50.6X
same,relative melanogenic potency in S91 cells (in words),[6]; Table 19 data,"only slightly more potent than (1S, 2S, 3R, 5S)-(+)-pinanediol"
"CC(O)C(C)O (centres unmarked) [BD-2,3, 2,3-butanediol]",Trypsinization Detachment Time,[7]; 50 mM,3 min
same,Trypsinization Detachment Time,[7]; 150 mM,9 min
same,melanogenesis in guinea pigs (in words),[4]; same relative body position,only slightly better melanogenic agents than propylene glycol
same,"relative melanogenesis rating (mean ±SE), scale 0-4",[4]; site b,1.33 ± 0.17^2
same,"relative melanogenesis rating (mean ±SE), scale 0-4",[4]; site d (tail),0.25 ± 0.14
same,Morphology Flattened Cuboidal,[8]; 50 mM,75%
same,Morphology Rounded Spindly,[8]; 50 mM,25%
same,Morphology Flattened Cuboidal,[8]; 150 mM,100%
same,Cells (×10^6),[5]; 50 mM,0.072 ×10^6
same,Cells (×10^6),[5]; 150 mM,0.040 ×10^6
same,reduction of cell numbers,[5]; 150 mM,one-third
same,Concentration Required for ≧2-fold Melanin Induction in S91 Cells,[2],100 mM
same,pg Melanin/Cell,[2]; 50 mM,15.6 pg Melanin/Cell
same,ug Melanin,[2]; 50 mM,1.12 µg
same,pg Melanin/Cell,[2]; 150 mM,23.8 pg Melanin/Cell
same,ug Melanin,[2]; 150 mM,0.95 µg
"Oc1cccnc1O [2,3-Pyridinediol, 2,3-pyridinediol]",Concentration Required for ≧1.5-fold Melanin Induction in NHEMs,[1],0.2 mM
same,toxicity to S91 cells,[5]; levels higher than 500 uM,toxic
same,Tyrosinase dpm/hr 10^3 Cells,[6],142 ± 8 dpm/hr/10^3 Cells
same,Tyrosinase dpm/hr ug Protein,[6],160 ± 19 dpm/hr/ug Protein
same,Concentration Required for ≧2-fold Melanin Induction in S91 Cells,[2],0.1 mM
"CC(C)(O)C(C)(C)O [2,3-M-2,3-BD, 2,3-dimethyl-2,3-butanediol]","Pigmentation Rating Normalized to 1,2-PG",[4],1.0 ± 0.6
same,Pigmentation Rating Normalized to 1M,[4],0.015 ± 0.008
same,Pigmentation Rating Background Corrected,[4],0.17 ± 0.09
same,Pigmentation Rating,"[4]; 13.61M 1,2-PG",0.25 ± 0.14
same,pigmentation response versus control (Nair or 2% 2P treated) spots,"[4]; sites towards tail, 13.61M 1,2-PG, 10.6M 1,2-PG/2% 2P, 11M 2,3-dimethyl-2,3-butanediol",not significantly different from control
same,Concentration Required for ≧1.5-fold Melanin Induction in NHEMs,[1],50 mM
same,Concentration Required for ≧2-fold Melanin Induction in S91 Cells,[2],25 mM
"O[C@@H]1CCC[C@@H]1O [1,2-cs-CPD, 1,2-cis-cyclopentanediol]","Pigmentation Rating Normalized to 1,2-PG",[4],13.5 ± 1.9
same,Pigmentation Rating Normalized to 1M,[4],0.202 ± 0.029
same,Pigmentation Rating Background Corrected,[4],1.75 ± 0.25
same,Pigmentation Rating,"[4]; 13.61M 1,2-PG",1.89 ± 0.27
same,greater melanogenesis than PG applied at similar body locations,"[4]; guinea pig, 5 days",5.5 fold
same,"relative melanogenesis rating (mean ±SE), scale 0-4",[4]; site d (tail),1.83 ± 0.33^2
same,Pigmentation Ratings (X ± SE; n = 6; scale 0 to +4),[4]; [10],1.83 ± 0.17
same,Pigmentation Ratings (X ± SE; n = 6; scale 0 to +4),"[4]; spot b, formulations as E220",1.92 ± 0.43
same,Pigmentation Ratings (X ± SE; n = 6; scale 0 to +4),"[4]; spot c, formulations as E220",1.92 ± 0.20
same,Pigmentation Ratings (X ± SE; n = 6; scale 0 to +4),[4]; [11],1.58 ± 0.24
same,Concentration Required for ≧1.5-fold Melanin Induction in NHEMs,[1],50 mM
same,Tyrosinase dpm/hr 10^3 Cells,[6],276 ± 16 dpm/hr/10^3 Cells
same,Tyrosinase dpm/hr ug Protein,[6],925 ± 53 dpm/hr/ug Protein
same,Concentration Required for ≧2-fold Melanin Induction in S91 Cells,[2],10 mM
